Legend:
Assay type in all cases: cell-based
[1] = MTT assay (LC50) in HeLa-cells; conditions: human, after 24 hours
Procedure: The LC50 values were determined by an MTT assay according to a standard method.
The LC50 value describes the lethal concentration at which […] died within 24 hours after a one-time administration.

[2] = system: human peripheral blood cells (PBL); test: adhesion of human peripheral blood cells (PBL) to ICAM-1 after stimulation with OKT3 or PMA; conditions: FIG. 1
Source text: Human peripheral blood cells (PBL) were stimulated with agonists that activate a beta-2 integrin-dependent adhesion. In these primary human lymphocytes, the beta-2 integrin-dependent adhesion can be activated by cytohesins at the specific ligands ICAM-1.
The agonists employed were the monoclonal antibody OKT3 (hybridome of ATCC, mAb OKT3 purified on protein A, according to standard methods from Current Protocols in Immunology, 5th Ed., Coligan et al., Edts, Wiley 2004) against the CD3 complex, a T-cell receptor and phorbolester (PMA), which non-physiologically activates intracellular signal cascades in human PBL including integrin-dependent adhesion while circumventing cytohesins.
Cells from human blood were isolated according to standard methods (Current Protocols in Immunology, 5th Ed., 2004, Coligan et al., Edts, Wiley). Cell culture dishes coated with ICAM-1 were produced by means of recombinant ICAM-1-Fc fusion protein (Kolanus, W. et al., Cell 86, 233-42 (1996), Geiger, C. et al., EMBO J., 19, 2525-2536 (2000)). 300,000 human peripheral blood cells (PBL) were stimulated for 30 minutes with 2 μg/ml of OKT3 or 40 ng/ml of phorbolester (PMA) in Hank's BSS, (Gibco; composition (g/l): CaCl2x2H2O (0.185), KCl (0.4), KH2PO4 (0.06), MgCl2x6H2O (0.1), MgSO4x7H2O (0.1), NaCl (8.0), NaHCO3 (0.35), Na2HPO4 (0.048), D-glucose (1.0)), and placed for one hour in Hank's BSS onto the ICAM-1 coated cell culture dishes, whereby the agonists were not removed. Non-bound cells were removed by washing with Hank's BSS. The percentage of bound cells was determined by counting under a microscope using a standard counting grid.

human dendritic cells = test: adhesion of dendritic cells to the substrate ICAM-1; conditions: 1 μM, 10 μM or 15 μM, 96 hours; stimulation with PMA or MEM-48; FIG. 4
Procedure: Dendritic cells were produced in vitro by means of differentiation factors (IL-4 and GM-CSF) from blood monocytes that were isolated from peripheral mononuclear cells (PBMC) by Ficoll density gradient centrifugation from the human blood of anonymous donors.
The blood was mixed at a ratio of 1:1 with PBS (KCl 0.2 g/l, KH2PO4 0.2 g/l, NaCl 8 g/l, Na2HPO4 1.15 g/l, PAA, Cölbe)/2 mM EDTA and layered onto half the volume of Ficoll. Centrifugation was carried out at 300×g, 30 minutes with no brake. After the centrifugation, a centered white band appeared which contained the PBMC. This was picked up with PBS/2 mM EDTA, filled up to 50 ml and subjected to several washing steps at 640×g, 500×g, 400×g, 300×g and 200×g. […]
The quantitative analysis of the cell migration was carried out in modified Boyden chambers consisting of a 24-hole plate into which the Transwell® filters with a 5 μm pore size had been placed. […] [98.6° F.] and 5% CO2 in the incubator and subsequently, the number of cells that had migrated into the lower chamber in the direction of the chemokine was determined. […]
Under corresponding conditions, the adhesion was determined after stimulation with phorbolester (PMA, 50 ng/ml, Sigma, Taufkirchen) or anti-beta-2 integrin antibodies MEM-48 (5 μg/ml, Vaclav Horeijsi, Czech Academy of Sciences Prague). […]

## COc1nc(-c2ccc3c(c2)OCO3)n(-c2ccc(NC(=O)CSc3ccccc3)cc2)n1 [Compound 9]
[1]
  CC50 at 24 h: 141 ± 8 µM
[2]; Homo sapiens, cells stimulated with OKT3, units given within the value, read-out: IC50 of inhibition of adhesion of PBL to ICAM-1
  IC50: 0.5 to 1 µM
[2]; cells activated by phorbolester (PMA)
  effect on adhesion of PBL to ICAM-1: not influenced
Human dendritic cells
  inhibition of the adhesion of dendritic cells on the substrate ICAM-1: concentration-dependent inhibition

Source: patent US8163788B2, “Low-molecular inhibitors of cytohesin-family guanine nucleotide exchange factors” (Rheinische Friedrich-Wilhelms Universitat Bonn, priority 2004, dated 2012)
